Assay results as given in patent US11318182B1, “Plant extract for skin infections” (priority 2021, dated 2022).

Legend:
Format in all cases: cell-based
Conditions in all cases: plant extract 29 μg/ml
Staphylococcus aureus = assay: Growth inhibition zone on nutrient agar
Protocol: (§1) In the preferred embodiment, grinded garlic, ginger, papaya seed, clover bud, tamarind and the coconut oil components are extracted by 95% ethanol and kept in dark four days at room temperature. The extracted homogenous texture is filtered through Whatman filter paper no. 1 by using Thermo Scientific Vacuum USA. The filtered extract pH is adjusted to 5.6. A drop of Lavender is added to the final concentration and the extract is refrigerated in sealed, amber-colored bottles at 4° C. after the concentration is determined. […], Penicillium notatum, and Aspergillus niger used as fungal species. Known isolates of Escherichia coli, Bacillus serous and Staphylococcus aureus used as bacterial species. Sabouraud dextrose agar (SDA) medium and Nutrient agar plates (NAP) used to confirm in vitro inhibition of the fungus and bacteria in 24, 48 and 72 hours at room temperature and 37° C. respectively. The antimicrobial activity of plant-extract specified by the formation of an inhibition zone is measured by using Vernier calipers. Also, 28 individuals evaluated after using the mixed plant-extract within two weeks trial controlling fungal and bacterial infections of the skin. […] Staphylococcus aureus, Bacillus cereus and Escherichia coli grown on nutrient agar (NA). Aspergillus niger, Penicillium notatum and […] tested fungal species grown on Sabouraud dextrose agar (SDA). […] The SDA and NA plates were filled with 20 ml of media and solidified in 24 hours at 37° C. incubator before inoculation of the of the microorganisms and the products to be tested.

Escherichia coli = assay: Growth inhibition zone on nutrient agar
Protocol: as §1

Bacillus cereus = assay: Growth inhibition zone on nutrient agar
Protocol: as §1

Aspergillus niger = assay: Growth inhibition zone on Sabouraud dextrose agar
Protocol: as §1

Penicillium notatum = assay: Growth inhibition zone on Sabouraud dextrose agar
Protocol: as §1

Serratia marcescens = assay: Growth inhibition zone on Sabouraud dextrose agar
Protocol: as §1

Compound | Growth inhibition by mm, S. Aureus (Staphylococcus aureus) [mm] | Growth inhibition by mm, E. coli (Escherichia coli) [mm] | Growth inhibition by mm, B. cereus (Bacillus cereus) [mm] | Growth inhibition by mm, A. niger (Aspergillus niger) [mm] | Growth inhibition by mm, P. notatum (Penicillium notatum) [mm] | Growth inhibition by mm, S. marcescens (Serratia marcescens) [mm]
Clc1ccccc1C(c1ccccc1)(c1ccccc1)n1ccnc1 [Clotrimazole 1%, clotrimazole] | 1.2 | 2.2 | 1 | 1.8 | 2.1 | 1.8
CN(C)[C@@H]1C(O)=C(C(N)=O)C(=O)[C@@]2(O)C(O)=C3C(=O)c4c(O)cccc4[C@@](C)(O)[C@H]3C[C@@H]12 [Tetracycline] | 1.3 | 1.2 | 1.3 | 0.8 | 0.7 | 0.7
C=CCCCCCCCCC(=O)O [Undecycleric add 25%, undecylenic acid] | 1.1 | 1.2 | 1.1 | 1.9 | 1.6 | 1.7
Penicillin | 1.9 | 2.5 | 1.9 | 1.7 | 1.4 | 1.6
